Columns and labels:
GSK3β = GSK3β (Homo sapiens, UniProt P49841); assay: GSK3beta assay (SPA, biotinylated phosphorylated CREB peptide, ATP-P33); assay type: biochemical; conditions: -log IC50 (M); 19 nM GSK3β, 5 μM biotinylated phosphorylated CREB peptide, 1 μM ATP, 25° C., one hour
Method: GSK3beta assays were performed at 25° C. in a 100 μl reaction volume of 25 mM Tris (pH 7.4) containing 10 mM MgCl2, 1 mM DTT, 0.1 mg/ml BSA, 5% glycerol and containing 19 nM GSK3β, 5 μM biotinylated phosphorylated CREB peptide, 1 μM ATP, 2 nM ATP-P^33 and a suitable amount of a test compound of formula (I) or (I′). After one hour, the reaction was terminated by adding 70 μl of Stop mix (1 mM ATP, 18 mg/ml streptavidin coated PVT SPA bead pH 11.0). The beads to which the phosphorylated CREB peptide is attached were allowed to settle for 30 minutes and the radioactivity of the beads was counted in a microtiterplate scintillation counter and compared with the results obtained in a control experiment (without the presence of a test compound) in order to determine the percentage of GSK3β inhibition. The IC50 value, i.e. the concentration (M) of the test compound at which 50% of GSK3β is inhibited, was calculated from the dose response curve obtained by performing the above-described GSK3β assay in the presence of different amounts of the test compound.

GSK3β, sequence (P49841 whole entry, species assumed): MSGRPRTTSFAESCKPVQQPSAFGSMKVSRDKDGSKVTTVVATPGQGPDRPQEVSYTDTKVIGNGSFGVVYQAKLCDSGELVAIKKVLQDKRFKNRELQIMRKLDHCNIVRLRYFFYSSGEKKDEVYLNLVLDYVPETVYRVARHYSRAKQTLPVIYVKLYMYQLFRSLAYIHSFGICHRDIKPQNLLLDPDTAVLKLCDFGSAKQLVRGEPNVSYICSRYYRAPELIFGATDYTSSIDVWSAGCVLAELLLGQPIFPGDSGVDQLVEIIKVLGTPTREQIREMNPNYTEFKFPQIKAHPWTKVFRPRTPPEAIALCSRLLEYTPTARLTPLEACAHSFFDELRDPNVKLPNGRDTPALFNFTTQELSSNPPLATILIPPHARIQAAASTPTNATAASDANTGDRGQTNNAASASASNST

Compound | melting point | IC50 (GSK3β)
N#Cc1ccc(Nc2ncccc2C(N)=O)cc1OCc1ccccc1 [Compound 1, 2-(3-benzyloxy-4-cyano-phenylamino)-nicotinamide] | 232 °C | –
CNC(=O)c1ccnc(Nc2ccc(C#N)c(OCc3ccccc3)c2)n1 [Compound 3] | – | 5.5e-08 M
CN(C)S(=O)(=O)Nc1cccc(COc2cc(Nc3nccc(C(N)=O)n3)ccc2C#N)c1 [Compound 8] | – | 2.09e-08 M
N#Cc1ccc(Nc2nccc(C(N)=O)n2)cc1OCc1cc(C(F)(F)F)cc(C(F)(F)F)c1 [Compound 9] | – | 3.8e-07 M
N#Cc1ccc(Nc2nccc(C(N)=O)n2)cc1O/C=C/c1ccccc1 [Compound 15] | – | 1.32e-07 M
CC(COc1cc(Nc2nccc(C(N)=O)n2)ccc1C#N)Oc1ccc(F)cc1 (centres unmarked) [Compound 16, 2-[[4-cyano-3-[2-(4-fluorophenoxy)propoxy]phenyl]amino]-4-pyrimidinecarboxamide] | – | 3.89e-08 M
N#Cc1ccc(Nc2nccc(C(N)=O)n2)cc1OCc1nc2ccccc2s1 [Compound 19] | – | 4.57e-07 M
N#Cc1ccc(Nc2nccc(C(N)=O)n2)cc1OCc1ccc2ccccc2n1 [Compound 21] | – | 2.51e-08 M
N#Cc1ccc(Nc2nccc(C(N)=O)n2)cc1OCC1CC(c2cccnc2)=NO1 (centres unmarked) [Compound 22] | – | 2.34e-07 M
NC(=O)c1ccnc(Nc2cccc(OCc3ccccc3)c2)n1 [Compound 25] | – | 9.12e-08 M
N#Cc1ccc(Nc2nccc(C(N)=O)n2)cc1 [Compound 29] | – | 1.48e-07 M
N#Cc1ccc(Nc2nccc(C(N)=O)n2)cc1OCc1ccc2ccccc2c1 [Compound 38, 2-[[4-cyano-3-(2-naphthalenylmethoxy)phenyl]amino]-4-pyrimidinecarboxamide] | – | 5.5e-08 M

Further lines, results first:

melting point | IC50 (GSK3β) | Compound
– | 5.01e-08 M | N#Cc1ccc(Nc2nccc(C(N)=O)n2)cc1OCc1ccccc1 [Compound 2, 2-[[4-cyano-3-(phenylmethoxy)phenyl]amino]-4-pyrimidinecarboxamide]
– | 1.1e-07 M | Cc1cc(C)cc(COc2cc(Nc3nccc(C(N)=O)n3)ccc2C#N)c1 [Compound 10]
– | 2.63e-07 M | N#Cc1ccc(Nc2nccc(C(N)=O)n2)cc1OCCN1CCOCC1 [Compound 11]
– | 8.91e-07 M | CN(C)CCOc1cc(Nc2nccc(C(N)=O)n2)ccc1C#N [Compound 12]
– | 5.25e-08 M | COc1ccc(COc2cc(Nc3nccc(C(N)=O)n3)ccc2C#N)cc1 [Compound 13, 2-[[4-cyano-3-[(4-methoxyphenyl)methoxy]phenyl]amino]-4-pyrimidinecarboxamide]
– | 1.38e-07 M | N#Cc1ccc(Nc2nccc(C(N)=O)n2)cc1OCCC1COc2ccccc2O1 (centres unmarked) [Compound 14]
– | 2.45e-07 M | N#Cc1ccc(Nc2nccc(C(N)=O)n2)cc1OCCOc1ccc(F)cc1F [Compound 17]
– | 5.75e-08 M | N#Cc1ccc(Nc2nccc(C(N)=O)n2)cc1OCCCc1ccccc1 [Compound 18]
– | 8.13e-08 M | N#Cc1ccc(Nc2nccc(C(N)=O)n2)cc1OCc1cccc2ccccc12 [Compound 23]
– | 4.79e-08 M | CCn1ccnc1COc1cc(Nc2nccc(C(N)=O)n2)ccc1C#N [Compound 24]
– | 4.37e-07 M | CCc1noc(COc2cc(Nc3nccc(C(N)=O)n3)ccc2C#N)n1 [Compound 26]
– | 4.68e-08 M | COc1ccccc1COc1cc(Nc2nccc(C(N)=O)n2)ccc1C#N [Compound 30, 2-[[4-cyano-3-[(2-methoxyphenyl)methoxy]phenyl]amino]-4-pyrimidinecarboxamide]
– | 9.55e-08 M | N#Cc1ccc(COc2cc(Nc3nccc(C(N)=O)n3)ccc2C#N)cc1 [Compound 31]
– | 6.46e-08 M | Cc1cccc(COc2cc(Nc3nccc(C(N)=O)n3)ccc2C#N)c1 [Compound 32]
– | 1.78e-07 M | Cc1ccccc1COc1cc(Nc2nccc(C(N)=O)n2)ccc1C#N [Compound 34]
– | 1.55e-07 M | Cc1ccc(COc2cc(Nc3nccc(C(N)=O)n3)ccc2C#N)cc1 [Compound 35]
– | 4.07e-07 M | N#Cc1ccc(Nc2nccc(C(N)=O)n2)cc1OCc1cccc(C(F)(F)F)c1 [Compound 36]

Source: patent US7183288B2, “Amide derivatives as glycogen synthase kinase 3-β inhibitors” (priority 2001, dated 2007)
